Experimental data from ChEMBL document CHEMBL1201862, “PubChem BioAssay data set” (2004).
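Dose response: 5 concentrations. Exposure: 48 h. Format: 96-well plates. Endpoint: linear interpolation; highest concentration if not reached. GI50 marks 50% less growth.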 Calls of active or inactive are those of the source. Rule as the data show it: active = GI50 up to about 1.1 µM and inactive = higher.

Columns and labels:
Test in all cases: DTP human tumour cell line panel, 48 h
EKVX = test system: EKVX
HCT-116 = test system: HCT-116
HT-29 = test system: HT-29
Hs-578T = test system: Hs-578T
KM12 = test system: KM12
MDA-N = test system: MDA-N
MOLT-4 = test system: MOLT-4
NCI-H226 = test system: NCI-H226
NCI-H460 = test system: NCI-H460
NCI-H522 = test system: NCI-H522
OVCAR-8 = test system: OVCAR-8
PC-3 = test system: PC-3
SF-539 = test system: SF-539
SK-OV-3 = test system: SK-OV-3
SN12C = test system: SN12C
SW-620 = test system: SW-620
U-251 = test system: U-251
UO-31 = test system: UO-31
A498 = test system: A498
RXF 393 = test system: RXF 393

Measured: GI50

CCOC(=O)N1CCN(c2ccc3ccc(N)nc3n2)CC1
inactive: EKVX > 100 µM | HCT-116 > 100 µM | HT-29 80.2 µM | Hs-578T > 100 µM | KM12 > 100 µM | MDA-N > 100 µM | MOLT-4 74.1 µM | NCI-H226 > 100 µM | NCI-H460 71.6 µM | NCI-H522 > 100 µM | OVCAR-8 > 100 µM | PC-3 > 100 µM | SF-539 > 100 µM | SK-OV-3 > 100 µM | SN12C > 100 µM | SW-620 > 100 µM | U-251 > 100 µM | UO-31 > 100 µM

CC1=CC2(O)OC3(CC2=C(C)C)C(C)CCC13 (stereo not given)
inactive: A498 > 100 µM | EKVX > 100 µM | HCT-116 > 100 µM | HT-29 > 100 µM | Hs-578T > 100 µM | KM12 > 100 µM | MDA-N > 100 µM | MOLT-4 > 100 µM | NCI-H226 > 100 µM | NCI-H522 > 100 µM | OVCAR-8 > 100 µM | RXF 393 > 100 µM | SF-539 > 100 µM | SK-OV-3 > 100 µM | SN12C > 100 µM | SW-620 > 100 µM | U-251 > 100 µM | UO-31 44.4 µM

COc1ccccc1NC(=O)CC(=O)N1N=C(N2c3ccccc3Sc3ccccc32)CC1c1ccccc1 (stereo not given)
inactive: A498 > 100 µM | EKVX > 100 µM | HCT-116 > 100 µM | HT-29 > 100 µM | Hs-578T > 100 µM | KM12 > 100 µM | MOLT-4 > 100 µM | NCI-H226 > 100 µM | NCI-H460 > 100 µM | NCI-H522 > 100 µM | OVCAR-8 > 100 µM | PC-3 > 100 µM | RXF 393 > 100 µM | SF-539 > 100 µM | SK-OV-3 > 100 µM | SN12C > 100 µM | SW-620 > 100 µM | U-251 > 100 µM | UO-31 > 100 µM

C/N=c1/oc2ccccc2cc1C(N)=O
inactive: EKVX 30.8 µM | HCT-116 > 100 µM | HT-29 > 100 µM | Hs-578T 16.9 µM | KM12 > 100 µM | MDA-N > 100 µM | MOLT-4 > 100 µM | NCI-H226 > 100 µM | NCI-H460 > 100 µM | NCI-H522 > 100 µM | OVCAR-8 > 100 µM | PC-3 > 100 µM | RXF 393 > 100 µM | SF-539 > 100 µM | SK-OV-3 > 100 µM | SN12C > 100 µM | SW-620 > 100 µM | U-251 > 100 µM | UO-31 58.2 µM

O=S(=O)(c1ccc(/N=N/O)nc1)c1ccc2ccccc2c1
inactive: A498 > 100 µM | EKVX > 100 µM | HCT-116 > 100 µM | HT-29 65.8 µM | Hs-578T > 100 µM | KM12 > 100 µM | MDA-N > 100 µM | MOLT-4 > 10 µM | NCI-H226 > 100 µM | NCI-H460 65.8 µM | NCI-H522 > 100 µM | OVCAR-8 > 100 µM | PC-3 38.5 µM | SF-539 > 100 µM | SK-OV-3 > 100 µM | SN12C 95.5 µM | SW-620 > 100 µM | U-251 > 100 µM | UO-31 23.1 µM

CCOC(=O)C1C(=O)C=C(c2cc(C)ccc2O)CC1c1cccc(Br)c1 (stereo not given)
inactive: EKVX 24 µM | HCT-116 18 µM | HT-29 18.9 µM | Hs-578T 14.8 µM | KM12 13.2 µM | MDA-N 4.05 µM | MOLT-4 16 µM | NCI-H226 15.7 µM | NCI-H460 19.5 µM | NCI-H522 14.7 µM | OVCAR-8 30 µM | PC-3 7.8 µM | RXF 393 14.4 µM | SF-539 16.2 µM | SK-OV-3 14.2 µM | SN12C 16.9 µM | SW-620 25 µM | U-251 16.1 µM | UO-31 20.9 µM

O=C(O)Cn1ccc(=O)c2c([N+](=O)[O-])cccc21
inactive: A498 > 100 µM | HCT-116 > 100 µM | HT-29 > 100 µM | Hs-578T > 100 µM | KM12 > 100 µM | MDA-N > 100 µM | MOLT-4 > 100 µM | NCI-H226 > 100 µM | NCI-H460 > 100 µM | NCI-H522 > 100 µM | OVCAR-8 > 100 µM | PC-3 > 100 µM | SF-539 > 100 µM | SK-OV-3 > 100 µM | SN12C > 100 µM | SW-620 > 100 µM | U-251 > 100 µM | UO-31 > 100 µM
